Each compound was assayed against PIK3CG (human) (UniProt P48736) (assay: Assessment of PIK3CG Kinase Activity).
PIK3CG (human), sequence (P48736 whole entry, looked up): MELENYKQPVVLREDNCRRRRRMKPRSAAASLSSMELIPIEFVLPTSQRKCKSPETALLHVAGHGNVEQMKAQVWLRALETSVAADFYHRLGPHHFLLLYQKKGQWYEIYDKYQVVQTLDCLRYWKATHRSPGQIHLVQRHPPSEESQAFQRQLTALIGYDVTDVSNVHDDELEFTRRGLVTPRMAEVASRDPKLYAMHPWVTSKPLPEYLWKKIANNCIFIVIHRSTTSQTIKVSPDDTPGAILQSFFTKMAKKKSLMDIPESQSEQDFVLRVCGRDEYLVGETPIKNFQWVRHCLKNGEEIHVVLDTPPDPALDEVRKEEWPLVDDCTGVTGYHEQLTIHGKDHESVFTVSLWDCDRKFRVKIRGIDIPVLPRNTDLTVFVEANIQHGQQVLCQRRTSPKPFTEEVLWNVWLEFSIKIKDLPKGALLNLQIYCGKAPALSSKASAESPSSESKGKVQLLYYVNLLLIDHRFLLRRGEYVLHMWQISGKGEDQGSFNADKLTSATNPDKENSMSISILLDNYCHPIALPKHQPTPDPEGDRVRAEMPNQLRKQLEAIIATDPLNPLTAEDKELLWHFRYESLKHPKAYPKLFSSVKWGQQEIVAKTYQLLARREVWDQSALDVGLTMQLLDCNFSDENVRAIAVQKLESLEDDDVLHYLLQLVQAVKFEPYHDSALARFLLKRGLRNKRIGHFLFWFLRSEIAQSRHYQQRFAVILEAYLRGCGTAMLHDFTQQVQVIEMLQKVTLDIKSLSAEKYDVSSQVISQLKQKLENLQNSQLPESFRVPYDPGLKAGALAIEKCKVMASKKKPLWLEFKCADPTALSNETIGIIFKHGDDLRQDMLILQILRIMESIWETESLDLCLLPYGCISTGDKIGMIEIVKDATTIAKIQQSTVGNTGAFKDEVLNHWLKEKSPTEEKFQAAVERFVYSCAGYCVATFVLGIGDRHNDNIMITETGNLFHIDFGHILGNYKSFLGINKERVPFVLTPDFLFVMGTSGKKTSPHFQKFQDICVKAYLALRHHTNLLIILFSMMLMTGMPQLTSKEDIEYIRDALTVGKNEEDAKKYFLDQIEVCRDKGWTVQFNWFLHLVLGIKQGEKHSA

IC50 [nM] | SMILES
16 | COc1cc2c(OC3CCN(C(=O)OC(C)(C)C)CC3)c(C(=O)Nc3nn[nH]n3)sc2cc1F
3.8 | COc1cc2c(O[C@@H]3CCC[C@H](C)C3)c(C(=O)Nc3nn[nH]n3)sc2cc1F
35 | COc1cc2c(O[C@@H]3CCC[C@@H](C)C3)c(C(=O)Nc3nn[nH]n3)sc2cc1F
12 | COc1cc2c(SC3CCCCC3)c(C(=O)Nc3nnn[nH]3)sc2cc1F
24.5 | COc1cc2c(Oc3ccccc3)c(C(=O)Nc3nn[nH]n3)sc2cc1F
20000 | COc1ccc2sc(C(=O)Nc3nnn[nH]3)c(SC(c3ccccc3)C(C)N(C)C(C)=O)c2c1F (configuration not stated)
14 | COc1cc2c(OCC3(C)CC3)c(C(=O)Nc3nn[nH]n3)sc2cc1F

The next lines start with the compound.

SMILES | IC50 [nM]
COc1ccc2c(SC3CCCCC3)c(C(=O)Nc3nnn[nH]3)sc2c1F | 27
COc1cc2c(Sc3ccc(Cl)cc3)c(C(=O)Nc3nnn[nH]3)sc2cc1F | 45.5
COc1ccc2sc(C(=O)Nc3nnn[nH]3)c(Sc3ccc(CC(=O)O)cc3)c2c1F | 19400
COc1ccc2sc(C(=O)Nc3nnn[nH]3)c(Sc3cccc(C(F)(F)F)c3)c2c1F | 11000
COc1ccc2sc(C(=O)Nc3nnn[nH]3)c(Sc3ccc(C4CCCCC4)cc3)c2c1F | 505

From the Kinase Knowledgebase extract (Sharma et al. 2016)
